We go through six compounds from patent US10906946B2, “Thrombin inhibitors” (priority 2015, dated 2021).

The target in experiment [1] is T1, thrombin (Homo sapiens, UniProt P00734).
T1 construct: residues in the termini of the light chain; and in the autolysis loop and C-terminus of the heavy chain; purchased Chemo-Sero-Therapeutic Research Institute (Kaketsuken, Japan), as a gift, not bought
The experiment in a line: Inhibition of thrombin fibrinogenolytic activity (fibrinogen clotting time). In kind it is biochemical. Here is the method:
(§1) Thrombin amidolytic activity assays for all peptides were performed in 96-wells microtiter plates in 50 mM Tris buffer (pH 7.4) containing 100 mM NaCl and 1 mg/ml bovine serum albumin. Typically, 100 μl of peptide and 100 μl of thrombin were pre-incubated for different durations before 100 μl of S2238 was added to the reaction wells. The rates of formation of p-nitroaniline were followed by measuring the absorbance at 405 nm for 10 min with a Tecan InfinitePro M200 microplate reader from Tecan (Männedorf, Switzerland). Dose-response curves were fitted using the GraphPad Prizm software (San Diego, Calif., USA) to calculate IC50 values and Hill coefficients. To measure the inhibitory constants, different concentrations of S2238 were used and the residual velocities were determined using the Morrison's tight binding equation. Inhibition of thrombin fibrinogenolytic activity of peptides were tested by measuring absorbance at 650 nm using a Sunrise microplate reader from Tecan (Männedorf, Switzerland) as described previously [Koh C Y, et al., J Biol Chem 282: 29101-13 (2007)]. The selectivity of avathrin was examined against 13 serine proteases (FIG. 5). Effects of avathrin on the amidolytic activities of these serine proteases were determined using respective chromogenic substrates. Cleavage of avathrin by thrombin. Avathrin (150 μM) was incubated with thrombin (5 μM), in 50 mM Tris buffer (pH 7.4) containing 150 mM NaCl and 1 mg/ml BSA. After different incubation times, reactions were quenched with 1% TFA (pH 1.8) and loaded onto a Jupiter Proteo column (4 μm, 90 Å, 100×1.0 mm) attached to a Dionex nano-HPLC system from Thermo Fisher Scientific (Waltham, Mass., USA) and eluted using an acetonitrile gradient with 0.05% TFA and 99.95% MilliQ water as eluent A and 0.05% TFA, 19.95% MilliQ water and 80% ACN as eluent B. Masses of all peaks were measured to identify cleavage products, which were subsequently quantified by integrating the peaks and calculating the area under the curves. To measure the effect of different pre-incubation times on the thrombin inhibitory activity, amidolytic assays were performed for various incubation times (up to 36 h).

Experiment [2] addresses T2, human α-thrombin (Homo sapiens, UniProt P00734).
T2 construct: residues in the termini of the light chain; purchased Chemo-Sero-Therapeutic Research Institute (Kaketsuken, Japan), as a gift, not bought
The experiment in a line: Thrombin amidolytic activity assay with chromogenic substrate S2238. In kind it is biochemical. The settings on record: for Hill slope of thrombin amidolytic inhibition: 0 min pre-incubation where stated; for IC50: IC50 of inhibition of thrombin amidolytic activity, S2238 100 μM, without pre-incubation (0 min) where stated. The protocol: as §1, with “Typically, 100 μl of peptide and 100 μl of thrombin were pre-incubated for different durations before 100 μl of S2238 was added to the reaction wells.” left out, “Cleavage of avathrin by thrombin.” left out

Experiment [3] deals with platelets (ADP-induced platelet aggregation). In words: Preservation of platelet function in blood tubes (Multiplate, ADP-induced platelet aggregation). To be noted: control tubes (0.109M citrate; >15 μg/ml hirudin), ADP agonist. In kind it is cell-based, human (healthy volunteers). Here is the method:
Individual peptides are dissolved in phosphate buffered saline to prepare 10× peptide solutions (ie. concentrations of peptides are 10 times higher than the final concentrations at which they are to be tested). 0.3 ml of the 10× peptide solutions are placed in blood tubes without any additives. Blood was drawn from healthy volunteers using syringes and immediately transferred to a 50 ml conical centrifuge tube (Falcon tube) before pipetting 2.7 ml of the blood into blood tubes with peptide solutions. Final concentrations of peptides are as stated in Table 5 and 6.
Blood tubes with various peptides at different concentrations were left standing at room temperature until tested at designated times. At different time points, tubes were inverted several times and blood samples were taken out for platelet aggregation tests using a Multiplate® Platelet aggregometer with adenosine diphosphate (ADP) as agonist according to manufacturer's recommended protocols.

In experiment [4] the test system is FeCl3-induced carotid artery thrombosis. In words: Ferric chloride-induced carotid artery thrombosis model. It is filed as in vivo, C57BL/6 male mice. To be noted: mice, 10% FeCl3. The protocol:
All animal experiments were carried out under protocol 041/12 approved by Institutional Animal Care and Use Committee, National University of Singapore. The ferric chloride induced carotid artery thrombosis model was performed as described previously [Eckly A, et al., J Thromb Haemost 9: 779-89 (2011)] with minor modifications. Typically, C57BL/6 male mice (9-11 weeks old, 24.5-27.5 g) were anesthetized with an intraperitoneal injection of ketamine (75 mg/kg) and medetomidine (1 mg/kg). 100 μL of different doses of avathrin were injected into the mice via tail vein. The right carotid artery was dissected using blunt dissection and a vascular injury was caused applying filter paper of 2 mm×2 mm saturated with FeCl3 on top of the carotid artery. After 3 min, the filter paper was removed and the vessel was washed with sterile normal saline. To determine the time to occlusion, a miniature Doppler flow probe (Transonic Systems Inc., Ithaca, N.Y., USA) was placed around the carotid artery and blood flow was recorded using a Transonic® flow meter from ADInstruments (Dunedin, New Zealand). The maximal time for monitoring the blood flow after injury was 30 min. Mice were euthanized by cervical dislocation immediately after the completion of the experiment and prior to recovery from anesthesia.

Where “and” joins values, the source holds several entries; their conditions need not be identical. Identical values can stand only once. Entries after “also recorded” stand apart in the source; their conditions may differ. Peptide text beside a SMILES is read from it.

One may read the IC50 as the point on the concentration scale where inhibition reaches its midpoint. Low readings indicate greater potency in that assay, high ones weaker potency in that assay. As a reminder, the Ki is the equilibrium dissociation constant of an inhibitor or competing ligand from its target. As to `CC[C@H](C)[C@H](N)C(=O)N[C@@H](CO)C(=O)N[C@@H](CCCCN)C(=O)N[C@@H](CCC(N)=O)C(=O)NCC(=O)N[C@@H](CC(C)C)C(=O)NCC(=O)NCC(=O)N[C@@H](CC(=O)O)C(=O)N[C@@H](Cc1ccccc1)C(=O)N[C@@H](CCC(=O)O)C(=O)N[C@@H](CCC(=O)O)C(=O)N[C@H](C(=O)N1CCC[C@H]1C(=O)N[C@@H](CO)C(=O)N[C@@H](CC(=O)O)C(=O)N[C@@H](CCC(=O)O)C(=O)N[C@H](C(=O)N[C@H](C(=O)N[C@@H](CCC(=O)O)C(=O)O)[C@@H](C)CC)[C@@H](C)CC)[C@@H](C)CC` [IS20] (H-ISKQGLGGDFEEIPSDEIIE-OH; N-terminus and C-terminus assumed), the “effect on fibrinogen clotting time / thrombin fibrinogenolytic activity” value in experiment [1] is “inhibited the fibrinogenolytic activity of thrombin in a dose-dependent manner; also recorded: prolonged fibrinogen clotting times in a dose dependent manner”. For the same compound, in experiment [2], the “Hill slope of thrombin amidolytic inhibition” value was determined as 0.86±0.02 and the “Hill slope of thrombin amidolytic inhibition, 10 min pre-incubation” value turned out to be 0.87±0.01. In experiment [2] (thrombin 0.81 nM), this compound showed an IC50 of 12.4 ± 0.32 nM. In experiment [2] (Ki(nM), Table 2), this compound came in with an inhibition constant (Ki) of 5.76 ± 0.23 nM. The “Hill Slope” value in experiment [2] (Table 2) came out at 0.86 ± 0.02.

As for `CC[C@H](C)[C@H](NC(=O)[C@H](CCCCN)NC(=O)[C@@H]1CCCN1C(=O)[C@@H](NC(=O)[C@H](C)NC(=O)[C@@H](NC(=O)[C@@H](N)CCC(N)=O)[C@@H](C)O)C(C)C)C(=O)N[C@@H](CO)C(=O)N[C@@H](CCCCN)C(=O)N[C@@H](CCC(N)=O)C(=O)NCC(=O)N[C@@H](CC(C)C)C(=O)NCC(=O)NCC(=O)N[C@@H](CC(=O)O)C(=O)N[C@@H](Cc1ccccc1)C(=O)N[C@@H](CCC(=O)O)C(=O)N[C@@H](CCC(=O)O)C(=O)N[C@H](C(=O)N1CCC[C@H]1C(=O)N[C@@H](CO)C(=O)N[C@@H](CC(=O)O)C(=O)N[C@@H](CCC(=O)O)C(=O)N[C@H](C(=O)N[C@H](C(=O)N[C@@H](CCC(=O)O)C(=O)O)[C@@H](C)CC)[C@@H](C)CC)[C@@H](C)CC` [QT26] (H-QTAVPKISKQGLGGDFEEIPSDEIIE-OH; N-terminus and C-terminus assumed), the “effect on fibrinogen clotting time / thrombin fibrinogenolytic activity” value in experiment [1] is “inhibited”. For the same compound, in experiment [2], the “Hill slope of thrombin amidolytic inhibition” value stood at 0.88±0.03 and the “Hill slope of thrombin amidolytic inhibition, 10 min pre-incubation” value was found to be 0.92±0.03. Besides, the IC50 in experiment [2] (thrombin 0.81 nM) worked out at 8.94 ± 0.64 nM. Also, in experiment [2] (Table 2), the “Hill Slope” value worked out at 0.88 ± 0.03. The compound also yielded a Ki in experiment [2] (inhibitory constant Ki for thrombin, thrombin 0.81 nM, various S2238 concentrations) of 0.7603 ± 0.00091 nM.

Regarding `O=C(O)CC(O)(CC(=O)O)C(=O)O` [citrate, reference compound], the “Multiplate AUC (U)” value is listed as 37 U in experiment [3] (1.5 h); 32.2 U in experiment [3] (4 h); 12.9 U in experiment [3] (24 h); 1.4 U in experiment [3] (48 h); 0.7 U in experiment [3] (72 h).

Take GLGGDFEEIPSDEIIE [GL16]: the “effect on fibrinogen clotting time / thrombin fibrinogenolytic activity” value in experiment [1] is reported as “inhibited the fibrinogenolytic activity; also recorded: prolonged fibrinogen clotting times in a dose dependent manner”. The “effect on thrombin amidolytic activity” value in experiment [2] (3-300 μM) is on record as “did not inhibit amidolytic activity even at 300 μM; also recorded: unable to inhibit thrombin amidolytic activity”. For the same compound, in experiment [2] (Table 2), the “Hill Slope” value is reported as “N. I”, the “IC50(nM)” value is reported as “N. I.*” and the “Ki(nM)” value was “N. I”. The “activation of thrombin amidolytic activity” value in experiment [2] (high concentrations, up to 300 μM) is given as 5-10%.

hirudin [reference compound]: the “Multiplate AUC (U)” value is 69.5 U in experiment [3] (1.5 h); 50.2 U in experiment [3] (4 h); 36.2 U in experiment [3] (24 h); 29.1 U in experiment [3] (48 h); 26.9 U in experiment [3] (72 h).

For “hirulog-1: peptidyl bivalent thrombin inhibitor used as comparator drug”, the “time to occlusion (TTO)” value is 9.70 ± 3.15 min and 9.76 ± 3.15 min in experiment [4] (3 mg/kg intravenously); 15.22 ± 3.39 min and 15.23 ± 3.39 min in experiment [4] (10 mg/kg intravenously).
